# Activity calls are given as the source filed them. The calls are words filed in the database; no cut-off is given here.
# System: 4T1
# Assay: Induction of apoptosis in 4T1 cells assessed as necrotic cells at 5 uM incubated for 48 hrs by Annexin V-FITC/PI staining based flow cytometry (reference value: 0.20 %)
# Assay type: functional, Mus musculus
# Settings: not given
row,SMILES,Activity [%]
1,Cc1cc(N2CCOCC2)ccc1Nc1nc(NC2CCCCC2)c2nc[nH]c2n1,0.54

# System: MCF7
# Assay: Induction of apoptosis in human MCF7 cells assessed as early apoptotic cells at 5 uM incubated for 48 hrs by Annexin V-FITC/PI staining based flow cytometry (reference value: 1.19 %)
# Assay type: functional
# Settings: not given
row,SMILES,Activity [%]
1,Cc1cc(N2CCOCC2)ccc1Nc1nc(NC2CCCCC2)c2nc[nH]c2n1,5.46

# System: MCF7
# Assay: Induction of apoptosis in human MCF7 cells assessed as late apoptotic cells at 5 uM incubated for 48 hrs by Annexin V-FITC/PI staining based flow cytometry (reference value: 0.63 %)
# Assay type: functional
# Settings: not given
row,SMILES,Activity [%]
1,Cc1cc(N2CCOCC2)ccc1Nc1nc(NC2CCCCC2)c2nc[nH]c2n1,4.31

# Target: T1, Dual specificity protein kinase TTK (Homo sapiens, UniProt P33981)
# T1 sequence (P33981 whole entry): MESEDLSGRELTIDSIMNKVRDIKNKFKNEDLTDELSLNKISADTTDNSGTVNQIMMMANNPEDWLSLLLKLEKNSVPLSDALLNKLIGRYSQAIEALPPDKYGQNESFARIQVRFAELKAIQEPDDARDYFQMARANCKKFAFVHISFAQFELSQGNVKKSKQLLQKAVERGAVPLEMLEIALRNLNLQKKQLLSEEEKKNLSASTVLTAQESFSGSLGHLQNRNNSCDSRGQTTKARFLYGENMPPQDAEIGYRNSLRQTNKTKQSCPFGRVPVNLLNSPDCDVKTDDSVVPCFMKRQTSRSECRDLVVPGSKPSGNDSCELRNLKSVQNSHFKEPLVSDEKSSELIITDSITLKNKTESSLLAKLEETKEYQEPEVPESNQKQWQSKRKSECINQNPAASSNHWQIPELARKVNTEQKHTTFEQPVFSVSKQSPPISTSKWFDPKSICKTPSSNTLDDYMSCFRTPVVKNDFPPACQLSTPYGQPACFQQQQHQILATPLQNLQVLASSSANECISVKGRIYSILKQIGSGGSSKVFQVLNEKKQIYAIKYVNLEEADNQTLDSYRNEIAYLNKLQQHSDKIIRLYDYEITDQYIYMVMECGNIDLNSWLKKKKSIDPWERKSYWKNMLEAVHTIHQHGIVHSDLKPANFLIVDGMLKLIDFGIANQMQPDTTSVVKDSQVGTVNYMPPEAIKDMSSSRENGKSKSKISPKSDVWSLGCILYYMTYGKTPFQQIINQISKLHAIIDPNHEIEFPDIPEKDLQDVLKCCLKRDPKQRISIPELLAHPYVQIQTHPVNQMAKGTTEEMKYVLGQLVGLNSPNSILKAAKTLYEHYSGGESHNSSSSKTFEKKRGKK
# Assay: Inhibition of Mps1 (unknown origin) incubated for 120 mins in presence of substrate/ATP by ADP-Glo assay
# Settings: not given
row,SMILES,IC50 [nM]
1,CCc1ccccc1Nc1nc(-n2nc(N)c3ccccc32)c2cc[nH]c2n1,338
2,CN1CCN(c2ccc(Nc3nc(-c4cnn(C)c4)c4cc[nH]c4n3)cc2)CC1,67
3,c1cc2c(ccn2-c2nc(Nc3ccc(N4CCOCC4)cc3)nc3[nH]ccc23)cn1,464
4,Cc1cc(N2CCN(C)CC2)ccc1Nc1nc(-n2nc(N)c3ccccc32)c2cc[nH]c2n1,41
5,CN1CCN(c2ccc(Nc3nc(-n4ccc5ccccc54)c4cc[nH]c4n3)cc2)CC1,137
6,COc1cc(N2CCOCC2)ccc1Nc1nc(-c2cnn(C)c2)c2cc[nH]c2n1,34
7,Nc1nn(-c2nc(Nc3ccccc3F)nc3[nH]ccc23)c2ccccc12,54
8,Cn1cc(-c2nc(Nc3ccc(N4CCOCC4)cc3)nc3[nH]ccc23)cn1,49
9,Nc1nn(-c2nc(Nc3ccccc3Cl)nc3[nH]ccc23)c2ccccc12,68
10,CN1CCN(c2ccc(Nc3nc(-n4cnc5ccccc54)c4cc[nH]c4n3)cc2)CC1,83
11,CN1CCN(c2ccc(Nc3nc(-n4nc(N)c5ccccc54)c4cc[nH]c4n3)cc2Cl)CC1,50
12,COc1ccccc1Nc1nc(-n2nc(N)c3ccccc32)c2cc[nH]c2n1,51
13,CN1CCN(c2ccc(Nc3nc(-n4ccc5cnccc54)c4cc[nH]c4n3)cc2)CC1,149
14,Nc1nn(-c2nc(Nc3ccccc3)nc3[nH]ccc23)c2ccccc12,106
15,c1ccc2c(c1)ccn2-c1nc(Nc2ccc(N3CCOCC3)cc2)nc2[nH]ccc12,144
16,COc1cc(N2CCOCC2)ccc1Nc1nc(-n2nc(N)c3ccccc32)c2cc[nH]c2n1,33
17,Nc1nn(-c2nc(Nc3ccccc3OC(F)(F)F)nc3[nH]ccc23)c2ccccc12,154
18,COc1cc(N2CCOCC2)ccc1Nc1nc(-n2cnc3ccccc32)c2cc[nH]c2n1,40
19,COc1cc(N2CCOCC2)ccc1Nc1nc(-n2ccc3cnccc32)c2cc[nH]c2n1,154
20,CN1CCN(c2ccc(Nc3nc(-n4nc(N)c5ccccc54)c4cc[nH]c4n3)cc2F)CC1,35
21,CCN1CCN(c2ccc(Nc3nc(-n4nc(N)c5ccccc54)c4cc[nH]c4n3)cc2)CC1,32
22,Nc1nn(-c2nc(Nc3ccc(N4CCOCC4)cc3)nc3[nH]ccc23)c2ccccc12,49
23,COc1cc(N2CCOCC2)ccc1Nc1nc(-n2ccc3ccccc32)c2cc[nH]c2n1,132
24,c1ccc2c(c1)ncn2-c1nc(Nc2ccc(N3CCOCC3)cc2)nc2[nH]ccc12,47

# System: 4T1
# Assay: Induction of apoptosis in 4T1 cells assessed as early apoptotic cells at 5 uM incubated for 48 hrs by Annexin V-FITC/PI staining based flow cytometry (reference value: 0.32 %)
# Assay type: functional, Mus musculus
# Settings: not given
row,SMILES,Activity [%]
1,Cc1cc(N2CCOCC2)ccc1Nc1nc(NC2CCCCC2)c2nc[nH]c2n1,1.56

# System: MCF7
# Assay: Induction of apoptosis in human MCF7 cells assessed as necrotic cells at 5 uM incubated for 48 hrs by Annexin V-FITC/PI staining based flow cytometry (reference value: 0.03 %)
# Assay type: functional
# Settings: not given
row,SMILES,Activity [%]
1,Cc1cc(N2CCOCC2)ccc1Nc1nc(NC2CCCCC2)c2nc[nH]c2n1,0.35

# System: 4T1-Luc
# Assay: Antitumor activity against mouse 4T1-Luc cells xenografted in BALB/C mouse assessed as delay in tumor growth at 10 mg/kg, ip dosed once a week for 15 days
# Assay type: functional, organism-based
# Settings: time 15.0 day
row,SMILES,Activity
1,CC(=O)O[C@H]1C(=O)[C@@]2(C)[C@H]([C@H](OC(=O)c3ccccc3)[C@]3(O)C[C@H](OC(=O)[C@H](O)[C@@H](NC(=O)c4ccccc4)c4ccccc4)C(C)=C1C3(C)C)[C@]1(OC(C)=O)CO[C@@H]1C[C@@H]2O,Active

# System: 4T1
# Assay: Induction of apoptosis in 4T1 cells assessed as late apoptotic cells at 5 uM incubated for 48 hrs by Annexin V-FITC/PI staining based flow cytometry (reference value: 1.73 %)
# Assay type: functional, Mus musculus
# Settings: not given
row,SMILES,Activity [%]
1,Cc1cc(N2CCOCC2)ccc1Nc1nc(NC2CCCCC2)c2nc[nH]c2n1,9.86
